Results reported in patent publication US20090047243A1, “COMBINATIONS FOR THE TREATMENT OF B-CELL PROLIFERATIVE DISORDERS” (priority 2007, published 2009).

How the values were obtained:
[1] = system: phosphodiesterase (PDE) types; conditions: PDE type(s) in brackets after the name; cited from earlier work
[2] = system: human multiple myeloma cells (MM.1S); assay: Anti-proliferation assay (ATPLite, 72 h); assay type: cell-based; design: key to synergy score / synergy (score), PDEi × HE-NECA: S = lnfX·lnfY·ΣIdata(Idata−ILoewe), volume over Loewe additivity
Summary of the method: (§1)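 Cells treated 72 h with compounds in 2- or 3-fold serial dilutions (12 concentrations for single agents; 6×6 matrix for combinations); INA-6 medium supplemented with 10 ng/ml IL-6. Viability by ATPLite luminescence; % inhibition vs untreated wells, curves fitted, combinations assessed by Loewe additivity and Synergy Score.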

[3] = system: patient CLL cells; assay: Apoptosis assay (Hoechst 33342, flow cytometry, 48 h); assay type: cell-based, human; design: unit not given here; conditions: CGS-21680 0 μM
From the text: Blood samples were obtained in heparinized tubes with IRB-approved consent from flow cytometry-confirmed B-CLL patients that were either untreated or for whom at least 1 month had elapsed since chemotherapy. Patients with active infections or other serious medical conditions were not included in this study. Patients with white blood cell counts of less than 15,000/μl by automated analysis were excluded from this study. Whole blood was layered on Ficoll-Hystopaque (Sigma), and peripheral blood mononuclear cells (PBMC) isolated after centrification. […] One million cells were stained with anti-CD5-PE and anti-CD19-PE-Cy5 (Becton Dickenson, Franklin Lakes N.J.). The percentage of B-CLL cells was defined as the percentage of cells doubly expressing CD5 and CDl9, as determined by flow cytometry. […] Compound master plates were diluted 1:50 into complete media to create working compound dilutions. Compound crosses were then created by diluting two working dilution plates 1:10 into each plate of cells. […] Hoechst 33342 (Molecular Probes, Eugene Oreg.) at a final concentration of 0.25 μg/1 mL was added to each well, and the cells incubated at 37° C. for an additional ten minutes before being placed on ice until analysis. Plates were then analyzed on a LSR-II flow cytometer (Becton Dickenson, Franklin Lakes, N.J.) equipped with the High Throughput Sampling (HTS) option in high throughput mode. […] The apoptotic fraction was calculated using FlowJo software (Tree Star Inc., Ashland, Oreg.) after excluding debris by a FSC/SSC gate and subsequently gating for cells that accumulate the Hoechst dye.

[4] = system: RPMI-8226 multiple myeloma cell line; assay: Anti-proliferation assay (ATPLite, 72 h); assay type: cell-based, human; design: key: S = lnfX·lnfY·ΣIdata(Idata−ILoewe), volume over Loewe additivity
Summary of the method: as §1

[5] = system: H929 multiple myeloma cell line; assay: Anti-proliferation assay (ATPLite, 72 h); assay type: cell-based, human; design: key: S = lnfX·lnfY·ΣIdata(Idata−ILoewe), volume over Loewe additivity
Summary of the method: as §1

[6] = system: human multiple myeloma cells (MM.1R); assay: Anti-proliferation assay (ATPLite, 72 h); assay type: cell-based; design: key: S = lnfX·lnfY·ΣIdata(Idata−ILoewe), volume over Loewe additivity
Summary of the method: as §1

[7] = system: MOLP-8 MM cell line; assay: Anti-proliferation assay (ATPLite, 72 h); assay type: cell-based, human; conditions: CGS-21680 × PDE inhibitor
Description: (§2) ANBL6 and INA-6 culture media was also supplemented with 10 ng/ml IL-6. […] MM.1S, MM.1R, OCI-ly10, Karpas 422, and SU-DHL6 cells were provided by the Dana Farber Cancer Institute. H929, RPMI-8226, GA-10, and Farage cells were from ATCC (Cat #'s CCL-155, CRL-9068, CRL-2392 and CRL-2630 respectively). MOLP-8, EJM, KSM-12-PE, and OPM2 were from DSMZ. The ANBL6 and INA-6 cell lines were provided by the M. D. Anderson Cancer Research Center. Compounds were prepared in DMSO at 1000× the highest desired concentration. Master plates were generated consisting of serially diluted compounds in 2- or 3-fold dilutions in 384-well format. For single agent dose response curves, the master plates consisted of 9 individual compounds at 12 concentrations in 2- or 3-fold dilutions. For combination matrices, master plates consisted of individual compounds at 6 or 9 concentrations at 2- or 3-fold dilutions. […] To obtain combination data, two master plates were diluted into the assay plates. […] Thirty microliters of ATPLite (Perkin Elmer) at room temperature was then added to each well. […] Measurements were taken at the top of the well using a luminescence aperture and a read time of 0.1 seconds per well. The percent inhibition (% I) for each well was calculated using the following formula: % I=[(avg. untreated wells-treated well)/(avg. untreated wells)]×100. […] Negative inhibition values result from local variations in treated wells as compared to untreated wells. […] The uncertainty of each fitted parameter was estimated from the range over which the change in reduced chi-squared was less than one, or less than minimum reduced chi-squared if that minimum exceeded one, to allow for underestimated σI errors. Single agent curve data were used to define a dilution series for each compound to be used for combination screening in a 6×6 matrix format. […] The Loewe additivity model was used to quantify combination effects. […] A “Synergy Score” was also used, where the Synergy Score S=log fX log fY ΣIdata(Idata-ILoewe), summed over all non-single-agent concentration pairs, and where log fX,Y is the natural logarithm of the dilution factors used for each single agent. This effectively calculates a volume between the measured and Loewe additive response surfaces, weighted towards high inhibition and corrected for varying dilution factors. An uncertainty σS was calculated for each synergy score, based on the measured errors for the Idata values and standard error propagation.

[8] = system: OPM2 MM cell line; assay: Anti-proliferation assay (ATPLite, 72 h); assay type: cell-based, human; conditions: CGS-21680 × PDE inhibitor
Description: as §2

[9] = system: INA-6 MM cell line; assay: Anti-proliferation assay (ATPLite, 72 h); assay type: cell-based, human; conditions: CGS-21680 × PDE inhibitor
Description: as §2

[10] = system: EJM MM cell line; assay: Anti-proliferation assay (ATPLite, 72 h); assay type: cell-based, human; conditions: CGS-21680 × PDE inhibitor
Description: as §2

[11] = system: KSM-12-PE MM cell line; assay: Anti-proliferation assay (ATPLite, 72 h); assay type: cell-based, human; conditions: CGS-21680 × PDE inhibitor
Description: as §2

[12] = system: ANBL6 MM cell line; assay: Anti-proliferation assay (ATPLite, 72 h); assay type: cell-based, human; conditions: CGS-21680 × PDE inhibitor
Description: as §2

In the case of `O=C(Nc1c(Cl)cncc1Cl)c1ccc(OC(F)F)c(OCC2CC2)c1` [Roflumilast, 3-(cyclopropylmethoxy)-N-(3,5-dichloro-4-pyridinyl)-4-(difluoromethoxy)-benzamide], the “PDE inhibitors (specificity)” value [1] is listed as “Roflumilast (4)”, the inhibition at 0.0631 µM ([2]; Homo sapiens, MM1.S, Roflumilast 0.0631 μM, Cl-IB-MECA conc. (μM), read-out: Percent inhibition of ATP in MM.1S cells) is listed as -7.1% and the inhibition at 0.126 µM ([2]; Homo sapiens, MM1.S, Roflumilast 0.126 μM, Cl-IB-MECA conc. (μM), read-out: Percent inhibition of ATP in MM.1S cells) is listed as 1.5%. The inhibition at 0.252 µM ([2]; Homo sapiens, MM1.S, Roflumilast 0.252 μM, Cl-IB-MECA conc. (μM), read-out: Percent inhibition of ATP in MM.1S cells) was -3.5%, the inhibition at 0.505 µM ([2]; Homo sapiens, MM1.S, Roflumilast 0.505 μM, Cl-IB-MECA conc. (μM), read-out: Percent inhibition of ATP in MM.1S cells) was 11% and the inhibition at 1.01 µM ([2]; Homo sapiens, MM1.S, Roflumilast 1.01 μM, Cl-IB-MECA conc. (μM), read-out: Percent inhibition of ATP in MM.1S cells) was 7.5%. For the same compound, the synergy score ([2]; PDE inhibitor crossed with (S) ENBA, MM.1S) was 2.19, the synergy score ([2]; PDE inhibitor crossed with Chloro-IB-MECA, MM.1S) was 2.12 and the synergy score ([2]; PDE inhibitor crossed with HE-NECA, MM.1S) was 2. It also gave a synergy score ([2]; in combination with adenosine receptor agonist CGS-21680, MM.1S) of 3.82, a synergy score ([2]; in combination with adenosine receptor agonist HE-NECA, MM.1S) of 2 and a synergy score ([2]; in combination with adenosine receptor agonist regadenoson, MM.1S) of 3.56. For the same compound, the Induction of apoptosis ([3]; Roflumilast 0.03 μM) was 17, the Induction of apoptosis ([3]; Roflumilast 0.09 μM) was 26 and the Induction of apoptosis ([3]; Roflumilast 0.27 μM) was 32. The synergy score ([4]; in combination with adenosine receptor agonist CGS-21680, RPMI 8226) was 0.69, the synergy score ([4]; in combination with adenosine receptor agonist HE-NECA, RPMI-8226) was 0.466 and the synergy score ([4]; in combination with adenosine receptor agonist regadenoson, RPMI 8226) was 1.12. For the same compound, the synergy score ([5]; PDE inhibitor crossed with (S) ENBA, H929) was 1.77, the synergy score ([5]; PDE inhibitor crossed with Chloro-IB-MECA, H929) was 1.16 and the synergy score ([5]; PDE inhibitor crossed with HE-NECA, H929) was 0.98. It also gave a synergy score ([5]; in combination with adenosine receptor agonist CGS-21680, H929) of 3.71, a synergy score ([5]; in combination with adenosine receptor agonist HE-NECA, H929) of 0.98 and a synergy score ([5]; in combination with adenosine receptor agonist regadenoson, H929) of 2.7. It also gave a synergy score ([6]; in combination with adenosine receptor agonist CGS-21680, MM.1R) of 3.61, a synergy score ([6]; in combination with adenosine receptor agonist regadenoson, MM.1R) of 5.83 and a synergy score [7] of 3.44. The synergy score [8] was 0.29, the synergy score [9] was 2.62 and the synergy score [10] was 1.06. The synergy score [11] was 0.27 and the synergy score [12] was 3.73.
